What was measured:
[1] = test system: anesthetized rabbit; assay: rabbit myocardial infarction model (30 min LCAO, reperfusion ~24 hours); format: in vivo; details: for cardioprotection (volume of infarcted myocardium vs. controls): administered beginning after 15 minutes of LCAO
Experimental: Cardioprotection by the test compound in ischemia-reperfusion injury was evaluated in a rabbit myocardial infarction model employing 30 minutes of reversible ligature occlusion of the left anterior descending coronary artery (LCAO) followed by reperfusion for ˜24 hours prior to sacrifice.

[2] = test system: Fenton Reactions (iron catalyzed Haber-Weiss pathways); assay: iron-catalyzed free radical generation, superoxide-driven Fenton reaction; format: biochemical; details: chelator as Fe(III) complex
Experimental: Employing published methods, as described in “Quantitative Effects of Iron Chelators on Hydroxyl Radical Production by the Superoxide-Driven Fenton Reaction,” J. B. Smith, J. C. Cusumano, C. F. Babbs, Free Rad. Res. Comms. 1990, Vol. 8, No. 2, 101-106, the ability of Fe(III) complexed to N,N′,N″-tri(dihydroxy-phosphoryl methyl)-1,4,7-triazacyclononane to support Fenton reactions was evaluated.

[3] = test system: HFF (human foreskin fibroblasts); assay: toxicity toward nonproliferating mammalian cells in vitro; format: cell-based; details: 0.3 mM; mature, nonreplicating HFF cultures in maintenance media; five-day period of observation
Description: This example illustrates the relatively low toxicity of a representative example of the chelators of this invention toward nonproliferating mammalian cells in vitro.

[4] = acute in vivo toxicity, single intravenous dose in mice; details: mouse, in vivo, iv
Experimental: (§1) This example illustrates the low in vivo toxicity of a representative example of the chelators of this invention upon administration to mice.
(§2) This in vivo LD50 toxicity dose results in an instantaneous in vivo concentration which is orders of magnitude greater than the dose of this agent which inhibits mammalian cell replication in vitro (0.009 mM/L).

[5] = test system: mice; assay: as above; details: 3.0 mM/kg single intravenous dose; sodium salt
Experimental: as §1, §2

[6] = test system: mammalian cell replication; assay: inhibition of mammalian cell replication in vitro; format: cell-based
Experimental: as §2

[7] = test system: Sprague Dawley rats; assay: subacute toxicity, repeated intravenous doses in rats; format: in vivo, rat
Description: Ten male Sprague Dawley rats 29 days old and weighing between 73.4 and 87.8 grams at the beginning of the experiment were randomized, employing the block stratificaton method, into two groups consisting of five rats each. On each of days 1, 2, 3, 6, 7, 8, 9, 10, 13 and 14 of the experiment one set of rats received an intravenous dose of N,N′,N″-tri(dihydroxyphosphoryl methyl)-1,4,7-triazacyclononane (Example 1C in U.S. Pat. No. 5,236,695) equal to 0.05 millimoles per kg of initial body weight (experimental group) while the other group received an equivalent volume of normal saline solution. The weights of the animals were recorded three times per week and the animals were sacrificed on the 28th day, major organs removed and weighed and tissues removed for microscopic examination.

[8] = test system: unanesthetized rabbit; assay: ventricular overdrive pacing (VOP) induced ischemia in unanesthetized rabbit; format: in vivo; details: for cardioprotection with regard to cardiac performance parameters: 10 min prior to VOP
Experimental: In the in vivo unanesthetized rabbit VOP-induced myocardial ischemia model, intravenous doses of 0.032 mmole/kg and 0.096 mmole/kg of the test compound were cardioprotective with regard to cardiac performance parameters when administered 10 min prior to VOP. […] The test compound had no affect on any cardiac performance parameters in these experiments prior to VOP-induced ischemia.

[9] = test system: rats; assay: rat stroke model, transient occlusion of the middle cerebral artery (TMCAO); format: in vivo; details: for Infarct Volumes: 48 hours after surgery; for Infarct Volumes / Motor Score: 1 Hour / Motor Score: 24 Hours / Motor Score: 48 Hours: mean ± SD
[10] = test system: ex vivo working rat heart; assay: ex vivo working rat heart model of global ischemia
[11] = Set I: three IV doses of 0.032 mmoles/kg at 10 min prior to, 60 min after MCA occlusion and at reperfusion
[12] = Set II: three IV doses of 0.032 mmoles/kg at 60, 120 (reperfusion) and 180 min after MCA occlusion
[13] = Set III: single 0.032 mmoles/kg IV dose after 60 minutes of MCA occlusion
[14] = Set IV: single 0.032 mmoles/kg IV dose after 90 minutes of MCA occlusion

O=C(NCCO[N+](=O)[O-])c1cccnc1 [nicorandil, reference compound]
cardioprotection (volume of infarcted myocardium vs. controls) [1]: failed to provide cardioprotection

O=C(O)CN(CCN(CC(=O)O)CC(=O)O)CC(=O)O [EDTA, ethylene diamine tetra acetic acid, reference compound]
ability of Fe(III) complexed to the chelator to support Fenton reactions (hydroxyl radical formation) [2]: supported the Fenton reaction yielding hydroxyl radicals

O=P(O)(O)CN1CCN(CP(=O)(O)O)CCN(CP(=O)(O)O)CC1 [N,N′,N″-tris(dihydroxyphosphorylmethyl)-1,4,7-triazacyclononane]
effect on the resting cells [3]: no effect on the resting cells was observed | LD50 at 14 days [4]: > 3000 µmol/kg | mice surviving for over 14 days [5]: Over 50% | dose which inhibits mammalian cell replication in vitro [6]: 0.009 mM/L | difference in weight or rate of weight gain vs control group ([7]; 0.05 millimoles per kg IV on 10 days within 14 days, injection period and two-week post-injection period): no statistically significant difference | differences in tissues upon microscopic examination vs control group ([7]; 0.05 millimoles per kg IV on 10 days, necropsy on 28th day): no differences | differences in weights of major organs vs control group ([7]; 0.05 millimoles per kg IV on 10 days, sacrifice on 28th day): no differences observed | ability of Fe(III) complexed to the chelator to support Fenton reactions (hydroxyl radical formation) [2]: failed to show evidence of hydroxyl ion formation above background | cardioprotection with regard to cardiac performance parameters ([8]; 0.032 mmole/kg intravenous): cardioprotective | cardioprotection with regard to cardiac performance parameters ([8]; 0.096 mmole/kg intravenous): cardioprotective | cardioprotection ([8]; single IV dose of 0.032 mmole/kg administered up to 60-120 min prior to VOP-induced ischemia): significant cardioprotection | effect on cardiac performance parameters prior to VOP-induced ischemia ([8]; unanesthetized rabbit): no affect | cardioprotection (volume of infarcted myocardium vs. controls) [1]: significant reduction | volume of infarcted myocardium expressed as % of myocardial volume at risk ([1]; administration beginning after 15 minutes of LCAO): 30.6% | infarcted myocardium as a % of volume at risk ([1]; administration initiated 10 minutes prior to the onset of ischemia): 28.1% | effect on pre-ischemia cardiac performance parameters ([1]; rabbit): without affecting | Infarct Volumes [9, 11]: 3.5 ± 3.7 percentage of whole hemispheric tissue | Motor Score: 1 Hour [9, 11]: 7.3 ± 1.3 points | Motor Score: 24 Hours [9, 11]: 5.9 ± 1.1 points | Motor Score: 48 Hours [9, 11]: 5.4 ± 1.9 points | Infarct Volumes [9, 12]: 6.2 ± 7.5 percentage of whole hemispheric tissue | Motor Score: 1 Hour [9, 12]: 6.9 ± 1.1 points | Motor Score: 24 Hours [9, 12]: 3.6 ± 2.9 points | Motor Score: 48 Hours [9, 12]: 3.0 ± 3.0 points | Infarct Volumes [9, 13]: 2.6 ± 2.1 percentage of whole hemispheric tissue | Motor Score: 1 Hour [9, 13]: 6.8 ± 1.0 points | Motor Score: 24 Hours [9, 13]: 4.3 ± 1.0 points | Motor Score: 48 Hours [9, 13]: 2.8 ± 2.1 points | Infarct Volumes [9, 14]: 4.63 ± 9.08 percentage of whole hemispheric tissue | Motor Score: 1 Hour ([9]; Set IV: single 0.032 mmoles/kg IV dose after 90 minutes of MCA occlusion, cell marked '2 hours:'): 7.43 ± 1.27 points | Motor Score: 24 Hours [9, 14]: 4.9 ± 2.04 points | Motor Score: 48 Hours [9, 14]: 3.7 ± 1.98 points | blood pressure, heart rate and temperature values compared with vehicle-treated animals ([9]; all treated groups): similar | reduction in infarct volumes compared to the corresponding control group ([9]; all treated rats): robust | effects on cardiac parameters following ischemia ([10]; 2.7 mM in the perfusing medium): no adverse effects | effects on cardiac performance parameters prior to ischemia ([10]; 2.7 mM in the perfusing medium): no effects | cardioprotection with regard to cardiac performance parameters following global ischemia ([10]; added to the perfusing medium, broad concentration range): significantly cardioprotective | concentration of peak efficacy (cardioprotection) ([10]; in the perfusing medium): 0.01 mM

From US6881732B2, “Neuroprotection and cardioprotection afforded by chelators with high affinity and specificity for cations of first transition series elements” (Chelator LLC, priority 2002, dated 2005)
